Measured values reported in EP0286825A2, “Use of 3'-fluro-3' deoxythymidine for the manufacture of a medicament for the treatment of virus infections” (Max-Planck-Gesellschaft zur Förderung der Wissenschaften …, priority 1987, dated 1988).
Where two headings read alike, the source gives them in different places. Values belong to the compound of their own block, whether it stands above or below them.

Key:
HIV [1] = test: microbe, parasite or virus in culture; assay type: cell-based; conditions: for EC50: Human immunodeficiency virus 1, MT4, read-out: concentration of active material that protects the cells with half maximum action against the pathogenic effect of HIV
MT₄-cells = test: Toxicity to MT4 cells in the absence of HIV, incorporation of thymidine; conditions: MT₄ cells without HIV, Fig. 5, compared with the other compounds
[2] = tested on: peripheral blood lymphocytes; test: Viability and cell number of the PHA stimulated peripheral blood lymphocytes; conditions: counts from thymidine incorporation
HIV [3] = assay type: cell-based
HIV [4] = assay type: cell-based; remark: listed apart in the source

- EC50 (HIV [1]; MT₄-cells, 1:40 dilution of the HIV parent liquid, thymidine incorporation): < 1.5 µg/mL
Compound: Nc1nc2c(ncn2[C@H]2C[C@H](F)[C@@H](CO)O2)c(=O)[nH]1 [3ʹ-fluoro-2ʹ,3ʹ-dideoxyguanosine]
- in vitro therapeutic index (HIV [1]; toxic concentration compared with antiviral concentration, MT₄ human cell line): approximately 400

Compound: [N-]=[N+]=N[C@H]1C[C@H](n2cnc3c(O)ncnc32)O[C@@H]1CO [3ʹ-azido-2ʹ,3ʹ-dideoxyinosine]
- Toxicity (MT₄-cells): higher
- rate of thymidine incorporation in the HIV infected cell line (HIV [1]; Fig. 5): nearly equalled that of non-infected T₄ cell lines

- EC50 (HIV [1]): < 0.002 µg/mL
Compound: Cc1cn([C@H]2C[C@H](F)[C@@H](CO)O2)c(=O)[nH]c1=O

Compound: Cc1cn([C@H]2C[C@H](N=[N+]=[N-])[C@@H](CO)O2)c(=O)[nH]c1=O [AZT, azido-thymidine]
- toxicity against the PBL [2]: do not show toxicity
- %B/Bo (HIV [3]; AZT 0.01 uM, day 4): 54.2%
- ng p24/ml (HIV [3]; AZT 0.01 uM, day 4): 3.6 ng p24/ml
- %B/Bo (HIV [3]; AZT 0.01 uM, day 7): 62.3%
- ng p24/ml (HIV [3]; AZT 0.01 uM, day 7): 2.7 ng p24/ml
- %B/Bo (HIV [3]; AZT 0.01 uM, day 11): 12.0%
- ng p24/ml (HIV [3]; AZT 0.01 uM, day 11): 20 ng p24/ml
- %B/Bo (HIV [3]; AZT 0.01 uM, day 14): 6.2%
- ng p24/ml (HIV [3]; AZT 0.01 uM, day 14): 20 ng p24/ml
- %B/Bo (HIV [3]; AZT 0.1 uM, day 4): 53.0%
- ng p24/ml (HIV [3]; AZT 0.1 uM, day 4): 3.7 ng p24/ml
- %B/Bo (HIV [3]; AZT 0.1 uM, day 7): 75.2%
- ng p24/ml (HIV [3]; AZT 0.1 uM, day 7): 1.6 ng p24/ml
- %B/Bo (HIV [3]; AZT 0.1 uM, day 11): 78.6%
- ng p24/ml (HIV [3]; AZT 0.1 uM, day 11): 1.3 ng p24/ml
- %B/Bo (HIV [3]; AZT 0.1 uM, day 14): 67.1%
- ng p24/ml (HIV [3]; AZT 0.1 uM, day 14): 2.3 ng p24/ml
- %B/Bo (HIV [3]; AZT 1 uM, day 4): 53.1%
- ng p24/ml (HIV [3]; AZT 1 uM, day 4): 3.7 ng p24/ml
- %B/Bo (HIV [3]; AZT 1 uM, day 7): 68.2%
- ng p24/ml (HIV [3]; AZT 1 uM, day 7): 2.2 ng p24/ml
- %B/Bo (HIV [3]; AZT 1 uM, day 11): 79.8%
- ng p24/ml (HIV [3]; AZT 1 uM, day 11): 1.25 ng p24/ml
- %B/Bo (HIV [3]; AZT 1 uM, day 14): 84.4%
- ng p24/ml (HIV [3]; AZT 1 uM, day 14): 0.94 ng p24/ml
- CPM/1+06 CELLS (HIV [4]; AZT 0.01UM, day 7): 1.78E+03 CPM/1+06 CELLS
- CPM/ml (HIV [4]; AZT 0.01UM, day 7): 5.9E+03 CPM/ml
- CPM/1+06 CELLS (HIV [4]; AZT 0.01UM, day 11): 7.19E+03 CPM/1+06 CELLS
- CPM/ml (HIV [4]; AZT 0.01UM, day 11): 2.8E+04 CPM/ml
- CPM/1+06 CELLS (HIV [4]; AZT 0.01UM, day 14): 2.41E+04 CPM/1+06 CELLS
- CPM/ml (HIV [4]; AZT 0.01UM, day 14): 1.4E+05 CPM/ml
- CPM/1+06 CELLS (HIV [4]; AZT 0.1UM, day 7): 8.64E+01 CPM/1+06 CELLS
- CPM/ml (HIV [4]; AZT 0.1UM, day 7): 3.5E+02 CPM/ml
- CPM/1+06 CELLS (HIV [4]; AZT 0.1UM, day 11): 2.49E+02 CPM/1+06 CELLS
- CPM/ml (HIV [4]; AZT 0.1UM, day 11): 1.2E+03 CPM/ml
- CPM/1+06 CELLS (HIV [4]; AZT 0.1UM, day 14): 9.78E+02 CPM/1+06 CELLS
- CPM/ml (HIV [4]; AZT 0.1UM, day 14): 3.9E+03 CPM/ml
- CPM/1+06 CELLS (HIV [4]; AZT 1UM, day 7): 7.66E+02 CPM/1+06 CELLS
- CPM/ml (HIV [4]; AZT 1UM, day 7): 2.9E+03 CPM/ml
- CPM/ml (HIV [4]; AZT 1UM, day 11): -8.1E+03 CPM/ml
- CPM/1+06 CELLS (HIV [4]; AZT 1UM, day 14): 1.55E+02 CPM/1+06 CELLS
- CPM/ml (HIV [4]; AZT 1UM, day 14): 5.7E+02 CPM/ml
